Tests used:
[1] = biological target: T1, GAL4-PPAR γ chimeric nuclear receptor (human PPAR γ ligand binding domain) (Homo sapiens, UniProt P37231); assay: PPAR γ transactivation assay by transient gene transfer (GAL4-PPAR γ chimeric receptor, luciferase reporter, HEK293EBNA cells); type: cell-based; settings: concentration showing 50% of efficacy (maximum activity rate relative to pioglitazone = 100%), 24 hr
T1 construct: expressed in transfected cells; host or cells: HEK293EBNA cells, transient transfection with SuperFect
T1 sequence (P37231 174-475 isoform P37231-2): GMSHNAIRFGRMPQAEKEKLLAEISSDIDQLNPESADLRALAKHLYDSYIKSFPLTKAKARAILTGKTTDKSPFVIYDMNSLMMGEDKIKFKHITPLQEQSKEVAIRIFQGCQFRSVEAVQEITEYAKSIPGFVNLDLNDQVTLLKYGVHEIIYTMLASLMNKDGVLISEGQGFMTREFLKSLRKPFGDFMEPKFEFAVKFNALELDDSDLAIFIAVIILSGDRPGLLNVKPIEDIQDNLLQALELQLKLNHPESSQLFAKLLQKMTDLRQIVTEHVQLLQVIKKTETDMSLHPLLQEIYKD
Method: The agonist activity of the test compound to PPAR γ was determined by a transactivation assay method using a chimeric nuclear receptor of a DNA binding region of a yeast transcription factor GAL4 and a PPAR γ ligand binding region. Specifically, the PPAR γ agonist activity of the test compound was evaluated by the following method based on the method of Lehmann et al. (J Biol. Chem., 1995, vol. 270, page 12953).
HEK293EBNA cells cultured in Dulbecco's Modified Eagle medium (Invitrogen) containing 10 v/v % fetal bovine serum (Invitrogen) were used. 30 mL of the above-mentioned cells (density: 1×10^5 cells/mL) were inoculated in a […] (Iwaki Glass), and cultured overnight. Using SuperFect Transfection Reagent (QIAGEN), a plasmid expressing a GAL4-PPAR γ chimeric nuclear receptor fusing 174-475 amino acids, which are human PPAR γ ligand binding domain, and 1-147 amino acids, which are GAL4 DNA binding domain, and a reporter plasmid expressing a GAL4 responsive luciferase were transiently introduced into the cells at a proportion of 4:1. After 5 hr from transfection, the cells were detached from the culture dish, and the detached cells (density: 2×10^4 cells/mL) were inoculated by 100 μL in each well of a 96 well white plate (SUMITOMO BAKELITE), and cultured overnight. The medium was removed, the test compound diluted in various concentrations with serum-free Dulbecco's Modified Eagle medium was added by 100 μL, and the mixture was reacted under a 5% carbon dioxide gas stream (5% CO2) at 37° C. for 24 hr. On the other hand, as a positive control, 10 μmol/L of pioglitazone (100 μL) was added, and the mixture was reacted under a 5% carbon dioxide gas stream (5% CO2) at 37° C. for 24 hr. As a substrate of luciferase, 100 μL of Steady-Glo (Promega) was added to each well and the mixture was thoroughly stirred. Immediately thereafter, the chemical luminescence due to luciferase was measured using TopCount NTX (Packard).
The agonist activity (activity rate (%)) of the test compound to PPAR γ was calculated according to the following formula, as a relative activity when the agonist activity on addition of pioglitazone ([…]) was 100%.

[2] = Metabolic stability evaluation in human liver microsome; type: in vitro ADME; settings: liver microsomes, pH 7.4; human liver microsome 0.2 mg/mL protein, test compound 1 μmol/L, β-NADPH, 37° C., 30 min; average of two samples; read-out: hCLint (converted)
Method: Human liver microsome (pool of 50 donors) was purchased from XenoTech. A reaction mixture containing phosphate buffer (100 mmol/L, pH 7.4), ethylenediamine tetraacetic acid (0.1 mmol/L), magnesium chloride (6 mmol/L), human liver microsome (0.2 mg/mL protein) and test compound (1 μmol/L) was prepared. The reaction mixture was preincubated at 37° C. for 5 min, β-NADPH (1 mmol/L) was added and the mixture was incubated at 37° C. for 30 min. The protein was removed with acetonitrile from the sample after the reaction and the sample was measured by LC-MS/MS. The ratio of the organic solvent in the reaction mixture was set to about 0.5%, and the reaction was performed in 2 samples.
The elimination rate constant (ke) was calculated from the linear regression of the logarithm plot of the residual ratio of the test compound and at 30 min after the reaction, and the liver inherent clearance (Cint) was calculated by the following formula.
[formula] ke: elimination rate constant (1/h) a: concentration (mg/mL) of liver microsome in the reaction mixture b: liver microsome amount per liver unit weight (32.3 mg/g liver) c: liver weight per unit body weight (25.7 g liver/kg body weight) Each test compound was tested in two samples, and the average thereof was calculated.

| Structure (SMILES) | EC50 [1] [nM] | CLint scaled at 1 μmol/L [2] [mL/min/kg] |
| --- | --- | --- |
| [2H]C([2H])([2H])Oc1cccn2c(Cc3ccc4c(c3)COc3cc(F)ccc3/C4=C(\C)c3noc(=O)[nH]3)c(C3CC3)nc12 [Compound 9h, (E)-3-[1-(8-{[2-cyclopropyl-8-(methoxy-d3)-imidazo[1,2-a]pyridin-3-yl]methyl}-3-fluorodibenzo[b,e]oxepin-11(6H)-ylidene)ethyl]-1,2,4-oxadiazol-5(4H)-one] | 11.9 | 25 |
| C/C(=C1/c2ccc(Cc3c(C4CC4)nc4c(F)cccn34)cc2COc2cc(F)ccc21)c1noc(=O)[nH]1 [Compound 9i, (E)-3-(1-{8-[(2-cyclopropyl-8-fluoroimidazo[1,2-a]pyridin-3-yl)methyl]-3-fluorodibenzo[b,e]oxepin-11(6H)-ylidene}ethyl)-1,2,4-oxadiazol-5(4H)-one] | 13.9 | 71.7 |
| C/C(=C1/c2ccc(Cc3c(C4CC4)nc4cc(Cl)ccn34)cc2COc2cc(F)ccc21)c1noc(=O)[nH]1 [Compound 10a, (E)-3-(1-{8-[(7-chloro-2-cyclopropylimidazo[1,2-a]pyridin-3-yl)methyl]-3-fluorodibenzo[b,e]oxepin-11(6H)-ylidene}ethyl)-1,2,4-oxadiazol-5(4H)-one] | 6.4 | 102 |
| C/C(=C1/c2ccc(Cc3c(C4CC4)nc4cc(F)ccn34)cc2COc2cc(F)ccc21)c1noc(=O)[nH]1 [Compound 10c, (E)-3-(1-{8-[(2-cyclopropyl-7-fluoroimidazo[1,2-a]pyridin-3-yl)methyl]-3-fluorodibenzo[b,e]oxepin-11(6H)-ylidene}ethyl)-1,2,4-oxadiazol-5(4H)-one] | 12.7 | 65 |
| COCc1nc2cc(Cl)ccn2c1Cc1ccc2c(c1)COc1cc(F)ccc1/C2=C(\C)c1noc(=O)[nH]1 [Compound 10e, (E)-3-{1-(8-{[7-chloro-2-(methoxymethyl)imidazo[1,2-a]pyridin-3-yl]methyl}-3-fluorodibenzo[b,e]oxepin-11(6H)-ylidene)ethyl}-1,2,4-oxadiazol-5(4H)-one] | 5.3 | 40 |
| C/C(=C1/c2ccc(Cc3c(C)nc4cc(C(F)(F)F)ccn34)cc2COc2cc(F)ccc21)c1noc(=O)[nH]1 [Compound 11b, (E)-3-[1-(3-fluoro-8-{[2-methyl-7-(trifluoromethyl)imidazo[1,2-a]pyridin-3-yl]methyl}dibenzo[b,e]oxepin-11(6H)-ylidene)ethyl]-1,2,4-oxadiazol-5(4H)-one] | 13.9 | 35 |
| C/C(=C1/c2ccc(Cc3c(C4CC4)nc4nc(C(F)(F)F)ccn34)cc2COc2cc(F)ccc21)c1noc(=O)[nH]1 [Compound 11h, (E)-3-[1-(8-{[2-cyclopropyl-7-(trifluoromethyl)imidazo[1,2-a]pyrimidin-3-yl]methyl}-3-fluorodibenzo[b,e]oxepin-11(6H)-ylidene)ethyl]-1,2,4-oxadiazol-5(4H)-one] | 19 | 90 |
| O=c1[nH]c(/C(=C2\c3ccc(Cc4c(C5CC5)nc5c(Cl)cccn45)cc3COc3cc(F)ccc32)C2CC2)no1 [Compound 12a, (E)-3-({8-[(8-chloro-2-cyclopropylimidazo[1,2-a]pyridin-3-yl)methyl]-3-fluorodibenzo[b,e]oxepin-11(6H)-ylidene}(cyclopropyl)methyl)-1,2,4-oxadiazol-5(4H)-one] | 18.8 | 78.3 |
| O=c1[nH]c(/C(=C2\c3ccc(Cc4c(C5CC5)nc5ccccn45)cc3COc3cc(F)ccc32)C2CC2)no1 [Compound 12c] | 78.2 | 65 |
| C/C(=C1/c2ccc(Cn3c(C(C)C)nc(Cl)c3Cl)cc2COc2cc(F)ccc21)c1noc(=O)[nH]1 [Compound 13c, (E)-3-(1-{8-[(4,5-dichloro-2-isopropyl-1H-imidazol-1-yl)methyl]-3-fluorodibenzo[b,e]oxepin-11(6H)-ylidene}ethyl)-1,2,4-oxadiazol-5(4H)-one] | 39.9 | 88.3 |

— patent US8969345B2, “Dibenzooxepin derivative” (Kyowa Hakko Kirin Co., Ltd., priority 2011, dated 2015)
